In the supplement of paper PMC11061612:

What was measured:
Prexasertib = compound: COc1cccc(OCCCN)c1-c1cc(Nc2cnc(C#N)cn2)n[nH]1 [Prexasertib]; details: max 1 µM
Summary of the method: (§1)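 Viability was measured with CellTiter-Glo 2.0 luminescence after 72 hours of dosing at a final DMSO of typically 0.2%, and scaled between blank-well and DMSO-well means. Beforehand, cancer cell lines sat 24 hours at 37°C and 5% CO2 in 1536-well plates in 7.5 μl DMEM/F12 or RPMI with 10% FBS. A non-linear mixed effects model fitted two-parameter logistic curves to the dose responses. The single-agent IC50 comes from these fits.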

SN-38 = compound: CCc1c2c(nc3ccc(O)cc13)-c1cc3c(c(=O)n1C2)COC(=O)[C@]3(O)CC [SN-38]; details: max 0.3 µM
Summary of the method: as §1

AZD0156 = compound: CN(C)CCCOc1ccc(-c2ccc3ncc4c(c3c2)n(C2CCOCC2)c(=O)n4C)cn1 [AZD0156]
Summary of the method: as §1

AZD6738 = compound: C[C@@H]1COCCN1C2=NC(=NC(=C2)C3(CC3)[S@](=N)(=O)C)C4=C5C=CNC5=NC=C4 [AZD6738]; details: max 10 µM
Summary of the method: as §1

AZD8186 = compound: C[C@@H](Nc1cc(F)cc(F)c1)c1cc(C(=O)N(C)C)cc2c(=O)cc(N3CCOCC3)oc12 [AZD8186]; details: max 3 µM
Summary of the method: as §1

Palbociclib = compound: CC(=O)c1c(C)c2cnc(Nc3ccc(N4CCNCC4)cn3)nc2n(C2CCCC2)c1=O [Palbociclib]; details: max 10 µM
Summary of the method: as §1

Savolitinib = compound: C[C@@H](c1ccc2nccn2c1)n1nnc2ncc(-c3cnn(C)c3)nc21 [Savolitinib]; details: max 1 µM
Summary of the method: as §1

Trametinib = compound: CC(=O)Nc1cccc(-n2c(=O)n(C3CC3)c(=O)c3c(Nc4ccc(I)cc4F)n(C)c(=O)c(C)c32)c1 [Trametinib]; details: max 1 µM
Summary of the method: as §1

Venetoclax = compound: CC1(C)CCC(CN2CCN(c3ccc(C(=O)NS(=O)(=O)c4ccc(NCC5CCOCC5)c([N+](=O)[O-])c4)c(Oc4cnc5[nH]ccc5c4)c3)CC2)=C(c2ccc(Cl)cc2)C1 [Venetoclax]; details: max 1 µM
Summary of the method: as §1

AZD1775 = compound: C=CCn1c(=O)c2cnc(Nc3ccc(N4CCN(C)CC4)cc3)nc2n1-c1cccc(C(C)(C)O)n1 [AZD1775]
Summary of the method: as §1

Taselisib = compound: Cc1nc(-c2cn3c(n2)-c2ccc(-c4cnn(C(C)(C)C(N)=O)c4)cc2OCC3)n(C(C)C)n1 [Taselisib]; details: max 10 µM
Summary of the method: as §1

AZD2811 = compound: CCN(CCO)CCCOc1ccc2c(Nc3cc(CC(=O)Nc4cccc(F)c4)[nH]n3)ncnc2c1 [AZD2811]; details: max 1 µM
Summary of the method: as §1

AZD4320 = compound: CN(CC[C@H](CSC1=CC=CC=C1)NC2=C(C=C(C=C2)S(=O)(=O)NC(=O)C3=CC=C(C=C3)N4CCC(CC4)[C@H](C5=CC=CC=C5C6=CC=C(C=C6)Cl)O)S(=O)(=O)C(F)(F)F)CCO [AZD4320]; details: max 1 µM
Summary of the method: as §1

Crizotinib = compound: C[C@@H](Oc1cc(-c2cnn(C3CCNCC3)c2)cnc1N)c1c(Cl)ccc(F)c1Cl [Crizotinib]; details: max 10 µM
Summary of the method: as §1

Selumetinib = compound: Cn1cnc2c(F)c(Nc3ccc(Br)cc3Cl)c(C(=O)NOCCO)cc21 [Selumetinib]; details: max 10 µM
Summary of the method: as §1

MK-2206 = compound: NC1(c2ccc(-c3nc4ccn5c(=O)[nH]nc5c4cc3-c3ccccc3)cc2)CCC1 [MK-2206]; details: max 10 µM
Summary of the method: as §1

Dasatinib = compound: CC1=C(C(=CC=C1)Cl)NC(=O)C2=CN=C(S2)NC3=CC(=NC(=N3)C)N4CCN(CC4)CCO [Dasatinib]; details: max 2 µM
Summary of the method: as §1

Alisertib = compound: COc1cc(Nc2ncc3c(n2)-c2ccc(Cl)cc2C(c2c(F)cccc2OC)=NC3)ccc1C(=O)O [Alisertib]; details: max 10 µM
Summary of the method: as §1

Capivasertib = compound: C1CN(CCC1(C(=O)N[C@@H](CCO)C2=CC=C(C=C2)Cl)N)C3=NC=NC4=C3C=CN4 [Capivasertib]; details: max 10 µM
Summary of the method: as §1

AZD5153 = compound: COc1nnc2ccc(N3CCC(c4ccc(OCCN5CCN(C)C(=O)[C@H]5C)cc4)CC3)nn12 [AZD5153]; details: max 1 µM
Summary of the method: as §1

SG3199 = compound: CC1=CN2[C@@H](C1)C=NC3=CC(=C(C=C3C2=O)OC)OCCCCCOC4=C(C=C5C(=C4)N=C[C@@H]6CC(=CN6C5=O)C)OC [SG3199]; details: max 0.001 µM
Summary of the method: as §1

Gefitinib = compound: COc1cc2ncnc(Nc3ccc(F)c(Cl)c3)c2cc1OCCCN1CCOCC1 [Gefitinib]; details: max 10 µM
Summary of the method: as §1

Lapatinib = compound: CS(=O)(=O)CCNCc1ccc(-c2ccc3ncnc(Nc4ccc(OCc5cccc(F)c5)c(Cl)c4)c3c2)o1 [Lapatinib]; details: max 10 µM
Summary of the method: as §1

Doxorubicin = compound: COc1cccc2c1C(=O)c1c(O)c3c(c(O)c1C2=O)C[C@@](O)(C(=O)CO)C[C@@H]3O[C@H]1C[C@H](N)[C@H](O)[C@H](C)O1 [Doxorubicin]; details: max 1 µM
Summary of the method: as §1

AZD7648 = compound: Cc1cc2ncnn2cc1Nc1ncc2c(n1)n(C1CCOCC1)c(=O)n2C [AZD7648]; details: max 10 µM
Summary of the method: as §1

AZD5991 = compound: Cc1c2c(nn1C)CSCc1cc(n(C)n1)CSc1cc(c3ccccc3c1)OCCCc1c(C(=O)O)n(C)c3c-2c(Cl)ccc13 [AZD5991]; details: max 1 µM
Summary of the method: as §1

Olaparib = compound: O=C(c1cc(Cc2n[nH]c(=O)c3ccccc23)ccc1F)N1CCN(C(=O)C2CC2)CC1 [Olaparib]; details: max 10 µM
Summary of the method: as §1

AZD1390 = compound: CC(C)n1c(=O)n(C)c2cnc3cc(F)c(-c4ccc(OCCCN5CCCCC5)nc4)cc3c21 [AZD1390]; details: max 0.3 µM
Summary of the method: as §1

| Cell Line | IC50, cell viability 72 h (Prexasertib) [nM] | IC50, cell viability 72 h (SN-38) [nM] | IC50, cell viability 72 h (AZD0156; max 3 µM) [nM] | IC50, cell viability 72 h (AZD6738) [nM] | IC50, cell viability 72 h (AZD8186) [nM] | IC50, cell viability 72 h (Palbociclib) [nM] | IC50, cell viability 72 h (Savolitinib) [nM] | IC50, cell viability 72 h (Trametinib) [nM] | IC50, cell viability 72 h (Venetoclax) [nM] | IC50, cell viability 72 h (AZD1775; max 3 µM) [nM] | IC50, cell viability 72 h (Taselisib) [nM] | IC50, cell viability 72 h (AZD2811) [nM] | IC50, cell viability 72 h (AZD4320) [nM] | IC50, cell viability 72 h (Crizotinib) [nM] | IC50, cell viability 72 h (Selumetinib) [nM] | IC50, cell viability 72 h (MK-2206) [nM] | IC50, cell viability 72 h (Dasatinib) [nM] | IC50, cell viability 72 h (Alisertib) [nM] | IC50, cell viability 72 h (Capivasertib) [nM] | IC50, cell viability 72 h (AZD5153) [nM] | IC50, cell viability 72 h (SG3199) [nM] | IC50, cell viability 72 h (Gefitinib) [nM] | IC50, cell viability 72 h (Lapatinib) [nM] | IC50, cell viability 72 h (Doxorubicin) [nM] | IC50, cell viability 72 h (AZD7648) [nM] | IC50, cell viability 72 h (AZD5991) [nM] | IC50, cell viability 72 h (Olaparib) [nM] | IC50, cell viability 72 h (AZD1390) [nM] | IC50, cell viability 72 h (AZD0156; max 1 µM) [nM] | IC50, cell viability 72 h (AZD1775; max 1 µM) [nM] |
| --- | --- | --- | --- | --- | --- | --- | --- | --- | --- | --- | --- | --- | --- | --- | --- | --- | --- | --- | --- | --- | --- | --- | --- | --- | --- | --- | --- | --- | --- | --- |
| ETK-1 (Biliary Tract Carcinoma) | 563 | 227 | > 3000 | 6850 | > 3000 | > 10000 | > 1000 | > 1000 | > 1000 | 1020 | 3330 | > 1000 | > 1000 | > 10000 | > 10000 | > 10000 | 580 | 6570 | > 10000 | > 1000 | > 1 | > 10000 | 6780 | > 1000 | > 10000 | > 1000 | > 10000 | > 300 |  |  |
| HCC1143 (Breast Carcinoma) | 19 | 237 | > 3000 | 2870 | > 3000 | > 10000 | > 1000 | > 1000 | > 1000 | 1050 | 5950 | > 1000 | > 1000 | > 10000 | > 10000 | > 10000 | > 2000 | > 10000 | > 10000 | > 1000 | > 1 | > 10000 | > 10000 | > 1000 | > 10000 | > 1000 | > 10000 | > 300 |  |  |
| HOP-92 (Non-Small Cell Lung Carcinoma) | 134 | 109 | > 3000 | > 10000 | > 3000 | > 10000 | > 1000 | 139 | > 1000 | > 3000 | 6710 | > 1000 | 140 | > 10000 | > 10000 | > 10000 | > 2000 | > 10000 | > 10000 | > 1000 | > 1 | > 10000 | > 10000 | > 1000 | > 10000 | > 1000 | > 10000 | > 300 |  |  |
| HuO9 (Osteosarcoma) | 46.3 | 3.15 | > 3000 | 1160 | > 3000 | > 10000 | > 1000 | > 1000 | > 1000 | 307 | 511 | > 1000 | 171 | 7070 | > 10000 | 8020 | > 2000 | 5740 | > 10000 | 275 | > 1 | > 10000 | > 10000 | 322 | > 10000 | 64.2 | > 10000 | > 300 |  |  |
| JHH-6 (Hepatocellular Carcinoma) | > 1000 | > 300 | > 3000 | > 10000 | > 3000 | > 10000 | > 1000 | > 1000 | > 1000 | > 3000 | > 10000 | > 1000 | > 1000 | > 10000 | > 10000 |  | > 2000 | > 10000 | > 10000 | 922 | > 1 | > 10000 | > 10000 | > 1000 | > 10000 | > 1000 | > 10000 | > 300 |  |  |
| KG-1 (Acute Myeloid Leukemia) | 45.8 | 13.2 | > 3000 | 5630 | > 3000 | > 10000 | > 1000 | > 1000 | 550 | 662 | > 10000 | > 1000 | 96.9 | > 10000 | > 10000 |  | > 2000 | 774 | > 10000 | 216 | > 1 | > 10000 | > 10000 | > 1000 | > 10000 | 83.7 | > 10000 | > 300 |  |  |
| MES-SA (Other Solid Carcinomas) | 80.1 | 28.2 | > 3000 | > 10000 | > 3000 | > 10000 | > 1000 | > 1000 | > 1000 | 707 | 1180 | > 1000 | > 1000 | > 10000 | > 10000 |  | > 2000 | 856 | > 10000 | > 1000 | > 1 | > 10000 | > 10000 | 268 | > 10000 | > 1000 | > 10000 | > 300 |  |  |
| RCC10RGB (Kidney Carcinoma) | 851 | 101 | > 3000 | > 10000 | 1010 | > 10000 | > 1000 | 753 | > 1000 | 2620 | 3250 | > 1000 | > 1000 | > 10000 | > 10000 |  | 435 | 3460 | > 10000 | > 1000 | > 1 | 7990 | > 10000 | > 1000 | > 10000 | > 1000 | > 10000 | > 300 |  |  |
| SNU-61 (Colorectal Carcinoma) | > 1000 | > 300 |  | > 10000 | > 3000 | > 10000 | > 1000 | 529 | > 1000 |  | > 10000 | > 1000 | > 1000 | > 10000 | > 10000 |  | > 2000 | > 10000 | > 10000 | > 1000 | > 1 | > 10000 | > 10000 | > 1000 | > 10000 | > 1000 | > 10000 | > 300 | > 1000 | > 1000 |
| U-118-MG (Low Grade Glioma) | 188 | 14.1 | > 3000 | > 10000 | > 3000 | > 10000 | > 1000 | > 1000 | > 1000 | 2740 | 6100 | > 1000 | > 1000 | > 10000 | > 10000 |  | > 2000 | > 10000 | 8880 | > 1000 | > 1 | > 10000 | > 10000 | > 1000 | > 10000 | > 1000 | > 10000 | > 300 |  |  |
